Test results published in US20200261479A1, “PROCESSES FOR THE PREPARATION OF AMORPHOUS TENOFOVIR ALAFENAMIDE HEMIFUMARATE AND A PREMIX THEREOF” (MYLAN LABORATORIES LIMITED, priority 2015, published 2020).

Columns and labels:
[1] = Storage stability of amorphous tenofovir alafenamide hemifumarate and premixes, PXRD pattern; assay type: physicochemical
Procedure: The amorphous form of tenofovir alafenamide hemifumarate of the present disclosure may be characterized by a PXRD pattern. Thus, the PXRD patterns of the amorphous form of tenofovir alafenamide hemifumarate were obtained on BRUKER D-8 Discover powder diffractometer equipped with goniometer of θ/2θ configuration and Lynx Eye detector. The Cu-anode X-ray tube was operated at 40 kV and 30 mA. The experiments were conducted over the 2θ range of 2.0°-50.0°, 0.030° step size and 0.4 seconds step time.
Thus, the PXRD patterns of several embodiments of the present disclosure were obtained on BRUKER D-8 Discover powder diffractometer equipped with goniometer of θ/2θ configuration and Lynx Eye detector. The Cu-anode X-ray tube was operated at 40 kV and 30 mA. The experiments were conducted over the 2θ range of 2.0°-50.0°, 0.030° step size and 0.4 seconds step time.

[2] = Storage stability of amorphous tenofovir alafenamide hemifumarate and premixes, HPLC purity
Procedure: As used herein, a compound or pharmaceutical composition is considered “stable” where the HPLC purity of the compound or premix changes by less than about 1% when stored at 5±3° C. and/or at 25° C./60% relative humidity (RH). In certain embodiments, the “stable” compound or premix is stored at 5±3° C. In other embodiments, the “stable” compound or premix is stored at 25° C./60% relative humidity (RH).
Further, the stability of certain embodiments of the premix of amorphous tenofovir alafenamide hemifumarate can be measured by PXRD and HPLC. Thus, HPLC analyses were also performed. HPLC separations were performed on a Waters Alliance 2695 HPLC system with UV detector. Data was collected and analyzed with Empower chromatography software or equivalent. The separation was performed on an X-Bridge Phenyl, 250×4.6 mm, 5 μm column with a mobile phase flow rate of 0.7 mL/min and injection volume of 10 μL. Separations were performed by gradient elution with mobile 1.75 mM tetrabutylammonium bisulfate (pH 2.0) in 5% THF (mobile phase A) and 70:30 acetonitrile:methanol (mobile phase B) as specified in the table below.
The column oven temp was 20° C. and UV detector was set to 260 nm. The purity of the premix was also measured by HPLC using similar conditions.

CC(C)OC(=O)[C@H](C)N[P@](=O)(CO[C@H](C)Cn1cnc2c(N)ncnc21)Oc1ccccc1 [tenofovir alafenamide hemifumarate]
PXRD ([1]; at 5 ± 3° C., 3 months): Stable | PXRD ([1]; at 5 ± 3° C., 6 months): Stable | PXRD ([1]; at 5 ± 3° C., Initial): Amorphous | PXRD ([1]; at 25° C./60% RH, 3 months): Stable | PXRD ([1]; at 25° C./60% RH, 6 months): Stable | PXRD ([1]; at 25° C./60% RH, Initial): Amorphous | HPLC purity (%) ([2]; at 5 ± 3° C., 3 months): 99.45% | HPLC purity (%) ([2]; at 5 ± 3° C., 6 months): 99.54% | HPLC purity (%) ([2]; at 5 ± 3° C., Initial): 99.53% | HPLC purity (%) ([2]; at 25° C./60% RH, 3 months): 99.36% | HPLC purity (%) ([2]; at 25° C./60% RH, 6 months): 99.48% | HPLC purity (%) ([2]; at 25° C./60% RH, Initial): 99.53% | degradation or change in PXRD pattern on storage ([2]; stored at 5±3° C. and at 25° C./60% RH, 3 and 6 months, HPLC and PXRD): no significant degradation or change in PXRD pattern
